Experimental data: patent publication US20240174671A1, “New 2,3-Dihydro-1H-pyrrolo[3,2-b]pyridine Derivatives as Sigma Ligands” (ACONDICIONAMIENTO TARRASENSE, priority 2021, published 2024)
Read-outs that look alike come from different tables or passages of the source.

Legend:
human σ1 receptor = biological target: T1, human σ1 receptor (Homo sapiens, UniProt Q99720); test: Human σ1 receptor radioligand assay ([3H](+)-pentazocine); type: binding
T1 construct: expressed in transfected cells; host or cells: HEK-293
Outline: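 Binding used [3H](+)-pentazocine, 120 min at 37° C, with non-specific binding defined by 10 μM haloperidol. Bound radioligand was collected by filtration, washed with ice-cold 10 mM Tris-HCl pH 7.4 and counted by scintillation.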

human σ2/TMEM97 receptor = biological target: T2, human σ2/TMEM97 receptor (Homo sapiens, UniProt Q5BJF2); test: Binding assay to human σ2/TMEM97 receptor ([3H]-DTG); conditions: transfected HEK-293 membranes, 10 nM [3H]-DTG, 25° C., 120 minutes; read-out: Binding σ-[…] (binding to σ2-receptor expressed as Ki)
T2 construct: expressed in transfected cells; host or cells: HEK-293
Outline: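 Membranes from transfected HEK-293 cells incubated with 10 nM [3H]-DTG in 50 mM Tris-HCl pH 8.0, 120 min at 25 °C; non-specific binding defined with 10 μM haloperidol. Bound radioactivity counted after filtration; compounds tested as % inhibition at 1 or 10 μM or at five concentrations for Ki.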

[1] = transfected HEK-293 membranes, 5 nM [3H](+)-pentazocine, 37° C., 120 minutes, read-out: Binding σ-[…] (binding to σ1-receptor expressed as Ki)

T1 sequence (Q99720 whole entry): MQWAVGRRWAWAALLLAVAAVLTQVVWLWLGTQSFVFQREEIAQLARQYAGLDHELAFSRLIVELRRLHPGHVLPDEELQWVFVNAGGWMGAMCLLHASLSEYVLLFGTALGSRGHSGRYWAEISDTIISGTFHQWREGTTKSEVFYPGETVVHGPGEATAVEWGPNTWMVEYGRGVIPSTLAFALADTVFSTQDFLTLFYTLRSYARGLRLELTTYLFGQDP
T2 sequence (Q5BJF2 whole entry): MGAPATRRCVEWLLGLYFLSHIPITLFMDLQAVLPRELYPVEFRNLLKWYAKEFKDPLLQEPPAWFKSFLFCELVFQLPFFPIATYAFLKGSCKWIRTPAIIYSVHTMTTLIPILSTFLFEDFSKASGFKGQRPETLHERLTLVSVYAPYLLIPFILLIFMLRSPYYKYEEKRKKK

Compound	Ki (human σ1 receptor; [1]) [nM]	Ki (human σ2/TMEM97 receptor) [nM]	Ki (human σ1 receptor) [nM]
CN(Cc1ccc(F)cc1)C1CCN(C(=O)N2CC(C)(C)c3ncccc32)CC1 [Example 86, (3,3-dimethyl-2,3-dihydro-1H-pyrrolo[3,2-b]pyridin-1-yl)(4-((4-fluorobenzyl)(methyl)amino)piperidin-1-yl)methanone]	500 to 1000	< 100	–
CN(CCc1ccccc1)[C@H]1CCN(C(=O)N2CCc3ncccc32)C1 [Example 62, (S)-(2,3-dihydro-1H-pyrrolo[3,2-b]pyridin-1-yl)(3-(methyl(phenethyl)amino)pyrrolidin-1-yl)methanone]	> 1000	500 to 1000	–
O=C(N1CC[C@H](NCCc2ccccc2)C1)N1CCc2ncccc21 [Example 97, (S)-(2,3-dihydro-1H-pyrrolo[3,2-b]pyridin-1-yl)(3-(phenethylamino)pyrrolidin-1-yl)methanone]	500 to 1000	> 1000	–
CN(Cc1cc(F)ccc1F)[C@H]1CC[C@H](C(=O)N2CC(C)(C)c3ncccc32)CC1 [Example 176, ((1r,4r)-4-((2,5-difluorobenzyl)(methyl)amino)cyclohexyl)(3,3-dimethyl-2,3-dihydro-1H-pyrrolo[3,2-b]pyridin-1-yl)methanone]	< 100	< 100	–
CN(Cc1ccc(F)c(F)c1)C1CCN(C(=O)N2CC(C)(C)c3ncccc32)CC1 [Example 79, (4-((3,4-Difluorobenzyl)(methyl)amino)piperidin-1-yl)(3,3-dimethyl-2,3-dihydro-1H-pyrrolo[3,2-b]pyridin-1-yl)methanone]	100 to 500	< 100	–
Cc1ccc2c(n1)C(C)(C)CN2C(=O)[C@H]1CC[C@H](N(C)Cc2c(F)cccc2F)CC1 [Example 171, ((1r,4r)-4-((2,6-difluorobenzyl)(methyl)amino)cyclohexyl)(3,3,5-trimethyl-2,3-dihydro-1H-pyrrolo[3,2-b]pyridin-1-yl)methanone]	< 100	< 100	–
CC1(C)CN(C(=O)NC2CCN(Cc3ccccc3)CC2)c2cccnc21 [Example 32, N-(1-benzylpiperidin-4-yl)-3,3-dimethyl-2,3-dihydro-1H-pyrrolo[3,2-b]pyridine-1-carboxamide]	< 100	> 1000	–
Cc1ccc2c(n1)C(C)(C)CN2C(=O)[C@H]1CC[C@H](N(C)Cc2ccc(F)cc2F)CC1 [Example 172, ((1r,4r)-4-((2,4-difluorobenzyl)(methyl)amino)cyclohexyl)(3,3,5-trimethyl-2,3-dihydro-1H-pyrrolo[3,2-b]pyridin-1-yl)methanone]	< 100	< 100	–
CN(Cc1cc(F)cc(C#N)c1)C1CCN(C(=O)N2CC(C)(C)c3ncccc32)CC1 [Example 76, 3-(((1-(3,3-dimethyl-2,3-dihydro-1H-pyrrolo[3,2-b]pyridine-1-carbonyl)piperidin-4-yl)(methyl)amino)methyl)-5-fluorobenzonitrile]	> 1000	500 to 1000	–
Cc1ccc2c(n1)C(C)(C)CN2C(=O)N1CCC(N(C)CCC(C)C)CC1 [Example 67, (4-(isopentyl(methyl)amino)piperidin-1-yl)(3,3,5-trimethyl-2,3-dihydro-1H-pyrrolo[3,2-b]pyridin-1-yl)methanone]	< 100	< 100	–
Cc1ccc2c(n1)C(C)(C)CN2C(=O)NC1CCN(CCC(C)C)CC1 [Example 25, N-(1-isopentylpiperidin-4-yl)-3,3,5-trimethyl-2,3-dihydro-1H-pyrrolo[3,2-b]pyridine-1-carboxamide]	< 100	100 to 500	–
Cc1ccc2c(n1)C(C)(C)CN2C(=O)[C@H]1CC[C@H](N(C)Cc2ncccc2F)CC1 [Example 178, ((1r,4r)-4-(((3-fluoropyridin-2-yl)methyl)(methyl)amino)cyclohexyl)(3,3,5-trimethyl-2,3-dihydro-1H-pyrrolo[3,2-b]pyridin-1-yl)methanone]	< 100	100 to 500	–
CN(Cc1ccccc1)[C@H]1CC[C@@H](C(=O)N2CC(C)(C)c3ncccc32)CC1 [Example 127, ((1s,4s)-4-(benzyl(methyl)amino)cyclohexyl)(3,3-dimethyl-2,3-dihydro-1H-pyrrolo[3,2-b]pyridin-1-yl)methanone]	< 100	< 100	–
COc1ccc(C(CNC(=O)N2CC(C)(C)c3nc(C)ccc32)N(C)C)cc1 (stereo not drawn) [Example 13, N-(2-(dimethylamino)-2-(4-methoxyphenyl)ethyl)-3,3,5-trimethyl-2,3-dihydro-1H-pyrrolo[3,2-b]pyridine-1-carboxamide]	–	> 1000	< 100
Cc1ccc2c(n1)CCN2C(=O)N1CCC(N(C)Cc2ccccc2)CC1 [Example 49]	100 to 500	100 to 500	–
CN(Cc1ccccc1)[C@H]1CC[C@H](C(=O)N2CC(C)(C)c3nc(C(F)(F)F)ccc32)CC1 [Example 186, ((1r,4r)-4-(benzyl(methyl)amino)cyclohexyl)(3,3-dimethyl-5-(trifluoromethyl)-2,3-dihydro-1H-pyrrolo[3,2-b]pyridin-1-yl)methanone]	< 100	> 1000	–
CN(Cc1ccccc1)[C@H]1CC[C@H](N(C)C(=O)N2CC(C)(C)c3ncccc32)CC1 [Example 78, N-((1r,4r)-4-(benzyl(methyl)amino)cyclohexyl)-N,3,3-trimethyl-2,3-dihydro-1H-pyrrolo[3,2-b]pyridine-1-carboxamide]	500 to 1000	< 100	–

Now from value to compound, other results behind:

Ki (human σ1 receptor; [1]) [nM]	Ki (human σ2/TMEM97 receptor) [nM]	Compound	Ki (human σ1 receptor) [nM]
100 to 500	< 100	Cc1ccc2c(n1)C(C)(C)CN2C(=O)N1CCC2(CCN(Cc3ccccc3)C2)C1 (stereo not drawn) [Example 37, (7-benzyl-2,7-diazaspiro[4.4]nonan-2-yl)(3,3,5-trimethyl-2,3-dihydro-1H-pyrrolo[3,2-b]pyridin-1-yl)methanone]	–
100 to 500	< 100	Cc1ccc2c(n1)C(C)(C)CN2C(=O)N1CCC2(CCN(Cc3ccccc3)CC2)C1 [Example 80, (8-benzyl-2,8-diazaspiro[4.5]decan-2-yl)(3,3,5-trimethyl-2,3-dihydro-1H-pyrrolo[3,2-b]pyridin-1-yl)methanone]	–
100 to 500	< 100	Cc1ccc2c(n1)C(C)(C)CN2C(=O)N1CCC(N(C)CC2CCOCC2)CC1 [Example 65, (4-(methyl((tetrahydro-2H-pyran-4-yl)methyl)amino)piperidin-1-yl)(3,3,5-trimethyl-2,3-dihydro-1H-pyrrolo[3,2-t]pyridin-1-yl)methanone]	–
< 100	< 100	CC1(C)CN(C(=O)N2CCC3(CCN(Cc4cccc(F)c4)CC3)C2)c2cccnc21 [Example 152, (3,3-dimethyl-2,3-dihydro-1H-pyrrolo[3,2-b]pyridin-1-yl)(8-(3-fluorobenzyl)-2,8-diazaspiro[4.5]decan-2-yl)methanone]	–
> 1000	< 100	COc1cccc(CN2CCC3(CC2)CCN(C(=O)N2CC(C)(C)c4nc(C)ccc42)C3)c1 [Example 95, (8-(3-methoxybenzyl)-2,8-diazaspiro[4.5]decan-2-yl)(3,3,5-trimethyl-2,3-dihydro-1H-pyrrolo[3,2-b]pyridin-1-yl)methanone]	–
100 to 500	> 1000	Cc1ccc2c(n1)C(C)(C)CN2C(=O)N1CCN(Cc2ccccc2)CC1 [Example 10, (4-benzylpiperazin-1-yl)(3,3,5-trimethyl-2,3-dihydro-1H-pyrrolo[3,2-b]pyridin-1-yl)methanone]	–
> 1000	< 100	Cc1ccc2c(n1)C(C)(C)CN2C(=O)N1CCC2(CCN(Cc3ccc(F)c(C#N)c3)CC2)C1 [Example 107, 2-fluoro-5-((2-(3,3,5-trimethyl-2,3-dihydro-1H-pyrrolo[3,2-b]pyridine-1-carbonyl)-2,8-diazaspiro[4.5]decan-8-yl)methyl)benzonitrile]	–
> 1000	< 100	Cc1ccc2c(n1)C(C)(C)CN2C(=O)N1CCC2(CCN(Cc3ccncc3)CC2)C1 [Example 99, (8-(pyridin-4-ylmethyl)-2,8-diazaspiro[4.5]decan-2-yl)(3,3,5-trimethyl-2,3-dihydro-1H-pyrrolo[3,2-b]pyridin-1-yl)methanone]	–
100 to 500	> 1000	COc1cccc([C@H](CNC(=O)N2CC(C)(C)c3nc(C)ccc32)N(C)C)c1 [Example 35, (R)—N-(2-(dimethylamino)-2-(3-methoxyphenyl)ethyl)-3,3,5-trimethyl-2,3-dihydro-1H-pyrrolo[3,2-b]pyridine-1-carboxamide]	–
100 to 500	100 to 500	CC1(C)CN(C(=O)NC2CC3(CCN(Cc4ccccc4)CC3)C2)c2cccnc21 [Example 104, N-(7-benzyl-7-azaspiro[3.5]nonan-2-yl)-3,3-dimethyl-2,3-dihydro-1H-pyrrolo[3,2-b]pyridine-1-carboxamide]	–
< 100	500 to 1000	Cc1ccc2c(n1)C(C)(C)CN2C(=O)N1CC2(CN(Cc3ccccc3)C2)C1 [Example 81, (6-benzyl-2,6-diazaspiro[3.3]heptan-2-yl)(3,3,5-trimethyl-2,3-dihydro-1H-pyrrolo[3,2-b]pyridin-1-yl)methanone]	–
> 1000	500 to 1000	Cc1ccc2c(n1)C(C)(C)CN2C(=O)N1CCC(N(C)Cc2ccncc2)CC1 [Example 75, (4-(methyl(pyridin-4-ylmethyl)amino)piperidin-1-yl)(3,3,5-trimethyl-2,3-dihydro-1H-pyrrolo[3,2-b]pyridin-1-yl)methanone]	–
100 to 500	< 100	CC1(C)CN(C(=O)N2CCC3(CCN(CC4CCOCC4)CC3)C2)c2cccnc21 [Example 144, (3,3-dimethyl-2,3-dihydro-1H-pyrrolo[3,2-b]pyridin-1-yl)(8-((tetrahydro-2H-pyran-4-yl)methyl)-2,8-diazaspiro[4.5]decan-2-yl)methanone]	–
